Article PMC6930605, “Matrix Metalloproteinase Triple-Helical Peptide Inhibitors: Potential Cross-Reactivity with Caspase-11” (Molecules, 2019)

Legend:
caspase-11 = experiment: Caspase enzyme assay (residual caspase-11 activity); assay type: biochemical, mouse
MMP-2 = target: T1, MMP-2 (Homo sapiens, UniProt P08253); settings: 37 °C; ref [15],[19]; cited from earlier work
T1 construct: Recombinant MMP-2 and MMP-9 catalytic domain were purchased from Sigma-Aldrich; purchased Sigma-Aldrich
T1 sequence (P08253 110-660): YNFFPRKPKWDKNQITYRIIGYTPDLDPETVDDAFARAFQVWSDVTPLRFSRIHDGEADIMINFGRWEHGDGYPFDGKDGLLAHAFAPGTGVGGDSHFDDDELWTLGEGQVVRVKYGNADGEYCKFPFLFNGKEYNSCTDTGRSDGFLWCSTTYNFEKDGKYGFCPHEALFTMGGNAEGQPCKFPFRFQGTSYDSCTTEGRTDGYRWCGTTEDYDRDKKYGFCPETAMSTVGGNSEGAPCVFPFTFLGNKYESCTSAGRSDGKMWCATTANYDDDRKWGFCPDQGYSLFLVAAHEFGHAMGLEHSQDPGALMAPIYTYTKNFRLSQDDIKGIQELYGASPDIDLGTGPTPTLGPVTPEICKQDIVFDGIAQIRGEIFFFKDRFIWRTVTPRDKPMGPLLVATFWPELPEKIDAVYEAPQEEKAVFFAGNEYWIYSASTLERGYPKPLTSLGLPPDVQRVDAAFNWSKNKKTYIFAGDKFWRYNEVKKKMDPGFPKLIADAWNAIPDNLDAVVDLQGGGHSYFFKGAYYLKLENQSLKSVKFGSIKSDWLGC

MT1-MMP = target: MT1-MMP; design: method as in 2 sources, ref [19] = [19]; PMID 28394608; doi:10.1021/acs.jmedchem.7b00018; 19. Bhowmick M. Tokmina-Roszyk D. Onwuha-Ekpete L. Harmon K. Robichaud T. Fuerst R. Stawikowska R. Steffensen B. Roush W.R. Wong H. Second Generation Triple-Helical Peptide Transition State Analog Mat ||| ref [15],[19] = [15]; PMID 17672455; doi:10.1021/ja0715849; 15. Lauer-Fields J.L. Brew K. Whitehead J.K. Li S. Hammer R.P. Fields G.B. Triple-helical transition-state analogs: A new class of selective matrix metalloproteinase inhibitors J. Am. Chem. Soc. 2007 || [19]; PMID 28394608; doi:10.1021/acs.jmedchem.7b00018; 19. Bhowmick M. Tokmina-Roszyk D. Onwuha-Ekpete L. Harmon K. Robichaud T. Fuerst R. Stawikowska R. Steffensen B. Roush W.R. Wong H. Second Generation Triple-Helical Peptide Transition State Analog Mat; settings: no or weak inhibition of MT1-MMP; ref [15],[19]; cited from earlier work
MMP-8 = target: T2, MMP-8 (Homo sapiens, UniProt P22894); design: method as in 2 sources, ref [19] = [19]; PMID 28394608; doi:10.1021/acs.jmedchem.7b00018; 19. Bhowmick M. Tokmina-Roszyk D. Onwuha-Ekpete L. Harmon K. Robichaud T. Fuerst R. Stawikowska R. Steffensen B. Roush W.R. Wong H. Second Generation Triple-Helical Peptide Transition State Analog Mat ||| ref [15],[19] = [15]; PMID 17672455; doi:10.1021/ja0715849; 15. Lauer-Fields J.L. Brew K. Whitehead J.K. Li S. Hammer R.P. Fields G.B. Triple-helical transition-state analogs: A new class of selective matrix metalloproteinase inhibitors J. Am. Chem. Soc. 2007 || [19]; PMID 28394608; doi:10.1021/acs.jmedchem.7b00018; 19. Bhowmick M. Tokmina-Roszyk D. Onwuha-Ekpete L. Harmon K. Robichaud T. Fuerst R. Stawikowska R. Steffensen B. Roush W.R. Wong H. Second Generation Triple-Helical Peptide Transition State Analog Mat; settings: no or weak inhibition of MMP-8; ref [15],[19]; cited from earlier work
T2 construct: purchased R&D Systems
T2 sequence (P22894 101-467): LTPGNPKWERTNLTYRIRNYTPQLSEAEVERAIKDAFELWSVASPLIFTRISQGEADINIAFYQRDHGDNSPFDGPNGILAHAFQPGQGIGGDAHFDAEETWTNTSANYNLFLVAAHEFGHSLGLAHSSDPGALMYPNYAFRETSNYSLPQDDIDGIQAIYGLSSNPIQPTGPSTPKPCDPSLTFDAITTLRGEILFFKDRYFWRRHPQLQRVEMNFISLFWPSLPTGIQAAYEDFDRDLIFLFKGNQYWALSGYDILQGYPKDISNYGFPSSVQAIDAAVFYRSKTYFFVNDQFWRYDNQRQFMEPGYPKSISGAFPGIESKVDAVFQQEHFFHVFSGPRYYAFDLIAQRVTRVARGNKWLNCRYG

MMP-13 = MMP-13 (Homo sapiens, UniProt P45452); settings: no or weak inhibition of MMP-13; ref [15],[19]; cited from earlier work
MMP-1 = target: MMP-1; design: method as in 2 sources, ref [19] = [19]; PMID 28394608; doi:10.1021/acs.jmedchem.7b00018; 19. Bhowmick M. Tokmina-Roszyk D. Onwuha-Ekpete L. Harmon K. Robichaud T. Fuerst R. Stawikowska R. Steffensen B. Roush W.R. Wong H. Second Generation Triple-Helical Peptide Transition State Analog Mat ||| ref [15],[19] = [15]; PMID 17672455; doi:10.1021/ja0715849; 15. Lauer-Fields J.L. Brew K. Whitehead J.K. Li S. Hammer R.P. Fields G.B. Triple-helical transition-state analogs: A new class of selective matrix metalloproteinase inhibitors J. Am. Chem. Soc. 2007 || [19]; PMID 28394608; doi:10.1021/acs.jmedchem.7b00018; 19. Bhowmick M. Tokmina-Roszyk D. Onwuha-Ekpete L. Harmon K. Robichaud T. Fuerst R. Stawikowska R. Steffensen B. Roush W.R. Wong H. Second Generation Triple-Helical Peptide Transition State Analog Mat; settings: no or weak inhibition of MMP-1; ref [15],[19]; cited from earlier work
[1] = ref [19]; cited from earlier work
MMP-3 = target: MMP-3; design: method as in 2 sources, ref [19] = [19]; PMID 28394608; doi:10.1021/acs.jmedchem.7b00018; 19. Bhowmick M. Tokmina-Roszyk D. Onwuha-Ekpete L. Harmon K. Robichaud T. Fuerst R. Stawikowska R. Steffensen B. Roush W.R. Wong H. Second Generation Triple-Helical Peptide Transition State Analog Mat ||| ref [15],[19] = [15]; PMID 17672455; doi:10.1021/ja0715849; 15. Lauer-Fields J.L. Brew K. Whitehead J.K. Li S. Hammer R.P. Fields G.B. Triple-helical transition-state analogs: A new class of selective matrix metalloproteinase inhibitors J. Am. Chem. Soc. 2007 || [19]; PMID 28394608; doi:10.1021/acs.jmedchem.7b00018; 19. Bhowmick M. Tokmina-Roszyk D. Onwuha-Ekpete L. Harmon K. Robichaud T. Fuerst R. Stawikowska R. Steffensen B. Roush W.R. Wong H. Second Generation Triple-Helical Peptide Transition State Analog Mat; settings: no or weak inhibition of MMP-3; ref [15],[19]; cited from earlier work
MMP-9 = target: T3, MMP-9 (Homo sapiens, UniProt P14780); settings: 37 °C; ref [15],[19]; cited from earlier work
T3 construct: Recombinant MMP-2 and MMP-9 catalytic domain were purchased from Sigma-Aldrich; purchased Sigma-Aldrich
T3 sequence (P14780 107-444 limits assumed, species assumed): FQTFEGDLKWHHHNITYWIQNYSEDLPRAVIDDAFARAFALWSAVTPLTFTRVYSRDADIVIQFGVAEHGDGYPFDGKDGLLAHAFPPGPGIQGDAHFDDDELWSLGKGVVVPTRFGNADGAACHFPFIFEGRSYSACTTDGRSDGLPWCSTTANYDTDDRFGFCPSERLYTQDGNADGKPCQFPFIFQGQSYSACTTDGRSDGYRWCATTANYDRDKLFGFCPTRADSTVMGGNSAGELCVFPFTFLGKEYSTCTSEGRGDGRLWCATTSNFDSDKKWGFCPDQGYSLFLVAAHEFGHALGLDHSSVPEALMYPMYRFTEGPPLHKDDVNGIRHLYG

Row | Substance | inhibition of caspase-11 activity (caspase-11; 5 μM inhibitor incubated with enzyme 2 h prior to substrate, 3 U/μL (1.08 μM) caspase-11, 250 μM acetyl-Trp-Glu-His-Asp-pNA, pH 6.5, 37 °C, absorbance 405 nm, result in words (up to 15 min)) | Ki (MMP-2) [µM] | Ki (MT1-MMP) [µM] | inhibition of caspase-11 activity at early time points (caspase-11; 5 μM inhibitor, 2 h inhibitor pre-incubation (Figure 2), stated to be similar to no pre-incubation) | change in extent of caspase-11 inhibition over time (caspase-11; 5 μM inhibitor, 2 h pre-incubation, 1 h monitoring, data not shown) | inhibition of caspase-11 activity at early time points (caspase-11; no inhibitor pre-incubation time, data not shown) | Ki (MMP-8) [µM] | Ki (MMP-13) [µM] | Ki (MMP-1) [µM] | efficacy in animal model of multiple sclerosis [1] | Ki (MMP-3) [µM] | Ki (MMP-9) [µM]
1 | Ac-LEVD-aldehyde (SMILES CC(=O)N[C@@H](CC(C)C)C(=O)N[C@@H](CCC(=O)O)C(=O)N[C@H](C(=O)N[C@H](C=O)CC(=O)O)C(C)C) [reference compound] | completely inhibit enzymatic activity |  |  |  |  |  |  |  |  |  |  | 
2 | (Gly-Pro-Hyp)4-Gly-mep-Flp-Gly-Pro-Pro-GlyΨ{PO2H-CH2}Val-Val-Gly-Glu-Gln-Gly-Glu-Gln-Gly-Pro-Pro-Gly-mep-Flp-(Gly-Pro-Hyp)4-NH2 |  | 0.00224 | 10 to 50 | no inhibition to occur at early time points | did not increase after 1 h | no inhibition to occur at early time points | 10 to 50 | 10 to 50 | 10 to 50 | efficacious in an animal model of multiple sclerosis | 10 to 50 | 0.00098
